Data from the METLIN SMRT retention time set (Domingo-Almenara et al. 2019).

Test: gradient 5% acetonitrile 3 min, to 50% in 2 min, to 85% in 15 min, held 3 min, 100 µL/min
Conditions: column: Zorbax Extend-C18 2.1 x 50 mm; eluents: water / acetonitrile, 0.1% formic acid
Outline: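 Over 3 months, pure standards in mixtures of ~100 molecules were run by HPLC coupled to a quadrupole time-of-flight mass spectrometer in positive and negative ionization mode. The column was a Zorbax Extend-C18 (2.1 × 50 mm, 1.8 μm) at 100 μL/min, eluted with water and acetonitrile each holding 0.1% formic acid, with 40 μL dead and 900 μL dwell volumes. Retention time was determined from adduct peaks chosen by software and checked manually.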

SMILES: Cc1c(C(N)=O)nnn1-c1ccccc1
- RP-LC retention time: 645 s

SMILES: CN(C)[C@@H]1CN(Cc2cccc(OC(F)(F)F)c2)CC[C@@H]1CO
- RP-LC retention time: 585 s

SMILES: Cc1cc(C(N)=O)c2cccc(Cl)c2n1
- RP-LC retention time: 621 s

SMILES: C=CCNc1nnc(SCC(=O)N2CCC(C(N)=O)CC2)s1
- RP-LC retention time: 572 s

SMILES: CCn1ccc(NC(=O)c2ccccc2C)n1
- RP-LC retention time: 720 s

SMILES: COc1ccc(-n2nc3c(N4CCCC(C(=O)NCCCc5ccccc5)C4)nnc(C)c3c2C)cc1 (stereo unspecified)
- RP-LC retention time: 777 s

SMILES: CCn1c(=O)c(C)nc2cc(-c3noc(C4CC(=O)N(c5ccc(C)cc5)C4)n3)ccc21 (stereo unspecified)
- RP-LC retention time: 884 s

SMILES: O=C(Cc1csc(SCc2ccncc2)n1)NCc1ccc2c(c1)OCO2
- RP-LC retention time: 568 s

SMILES: COc1ccc(S(=O)(=O)N2CCCC(C(=O)NC(C)(C)C)C2)cc1OC (stereo unspecified)
- RP-LC retention time: 707 s

SMILES: Cc1csc(-c2cc(S(=O)(=O)N(Cc3cccs3)C3CCCC3)c(C)s2)n1
- RP-LC retention time: 1320 s

SMILES: COc1ccc(-c2noc(C3CCCN3C(=O)c3ccc(N(C)C)cc3)n2)cc1 (stereo unspecified)
- RP-LC retention time: 961 s

SMILES: COCCCNC(=O)c1ccc2c(c1)N(Cc1ccc(F)cc1)C(=O)CO2
- RP-LC retention time: 711 s

SMILES: O=C(Cn1c(=O)c2cc(C3CC3)nn2c2ncccc21)Nc1cccc(Cl)c1
- RP-LC retention time: 848 s

SMILES: Cc1nn(-c2nc(-c3ccc(Cl)cc3)cs2)c(C)c1CC(=O)N1CCCCC1
- RP-LC retention time: 1260 s

SMILES: O=C(C1CCOC1)N1CCCn2nc(-c3ccc(Cl)cc3)cc2C1 (stereo unspecified)
- RP-LC retention time: 767 s

SMILES: COc1ccc2[nH]c(-c3ccccc3)cc2c1
- RP-LC retention time: 1040 s

SMILES: COc1ccc(-n2ccnc2SCC(=O)NCc2ccc3c(c2)OCO3)c(OC)c1
- RP-LC retention time: 630 s

SMILES: Cc1ccc2c(c1)cc(S(=O)(=O)c1ccccc1)c(=O)n2CC(=O)NCC1CCCO1 (stereo unspecified)
- RP-LC retention time: 765 s

SMILES: c1ccc(-c2nc3cc(-c4noc(C5CCOC5)n4)ccc3o2)cc1 (stereo unspecified)
- RP-LC retention time: 1100 s

SMILES: COc1ccc(-c2coc3cc(OC(=O)N(C)C)cc(O)c3c2=O)cc1OC
- RP-LC retention time: 858 s

SMILES: CCC(=O)N1CCN(Cc2nc3cc(NC(=O)CC(C)C)ccc3n2C)CC1
- RP-LC retention time: 603 s

SMILES: Cc1ccc(-c2nc3nc(C)c(CC(=O)N4CCCC4)c(C)n3n2)cc1
- RP-LC retention time: 738 s

SMILES: Cc1cccc(Nc2nc(C)c(C(=O)NC3CCN(Cc4ccccc4)CC3)s2)n1
- RP-LC retention time: 645 s

SMILES: Clc1ccccc1-c1noc(Cc2nc(-c3ccc4c(c3)OCO4)cs2)n1
- RP-LC retention time: 1140 s

SMILES: Cc1ccccc1Nc1c(-c2cccc(Cl)c2)nc2ccc(Cl)cn12
- RP-LC retention time: 1080 s

SMILES: O=C(NCC1CCN(C(=O)Oc2ccccc2)CC1)C(=O)Nc1ccon1
- RP-LC retention time: 741 s

SMILES: CCc1ccc(S(=O)(=O)N2CCC3(CC2)C(=O)N(CC)c2ccccc23)cc1
- RP-LC retention time: 1140 s

SMILES: CCN(CC)CCNc1c(C)cc(CO)c(Cl)c1C
- RP-LC retention time: 640 s

SMILES: Cc1cc(=O)n(CC(=O)Nc2ccc(F)c(F)c2)c(N2CCCC2)n1
- RP-LC retention time: 671 s

SMILES: COc1cc(NC(=O)N2CCC(n3c(C)nc4cccnc43)CC2)cc(OC)c1OC
- RP-LC retention time: 569 s

SMILES: O=C(CCn1nnc2cc(-c3noc(-c4ccc(F)cc4)n3)ccc21)N1CCCC1
- RP-LC retention time: 903 s

SMILES: O=S(=O)(c1ccc2c(c1)CCCN2)N1CCC[C@H]2CCCC[C@@H]21
- RP-LC retention time: 1190 s

SMILES: CCc1ccc(Nc2nc(C(=O)NCCOC)nc3ccccc23)cc1
- RP-LC retention time: 748 s

SMILES: COc1ncccc1CNC(=O)c1sccc1C
- RP-LC retention time: 746 s

SMILES: O=C(Nc1ccc(N2CCOCC2)cc1)C1CCCN(c2ncc(-c3cccc(F)c3)cn2)C1 (stereo unspecified)
- RP-LC retention time: 969 s

SMILES: COc1ccc(S(=O)(=O)CCC(=O)N2CCCC2c2nc(-c3ccc(C)cc3)no2)cc1 (stereo unspecified)
- RP-LC retention time: 951 s

SMILES: Cn1ncc2c3ccccc3n(CC(=O)N3CCN(c4ccccc4)CC3)c2c1=O
- RP-LC retention time: 784 s

SMILES: CCOC(=O)c1cnc2nc(C)ccc2c1Nc1ccc(C)c(F)c1
- RP-LC retention time: 736 s

SMILES: COc1cccc(C(=O)CSc2ccc(-n3cccn3)nn2)c1
- RP-LC retention time: 847 s

SMILES: Cc1cc(C)cc(C(=O)N2c3ccccc3CC2c2nc(C3CC3)no2)c1 (stereo unspecified)
- RP-LC retention time: 1130 s

SMILES: CC(C)NC(=O)c1ccc(OCC2CCN(C(=O)c3ccc(F)cc3F)CC2)cc1
- RP-LC retention time: 854 s

SMILES: Cc1ccc(C(=O)Nc2cnc(N3CCCCC3)nc2)s1
- RP-LC retention time: 822 s

SMILES: CCN(CC)S(=O)(=O)c1ccc2c(c1)CC(C(=O)NCCN(C)C)N2C(C)=O (stereo unspecified)
- RP-LC retention time: 645 s

SMILES: CCCCC(=O)N1CCN(c2ncccc2-c2nnc(C(C)C)o2)CC1
- RP-LC retention time: 794 s

SMILES: CCOc1ccccc1NC(=O)Cn1cccc(-c2nc(-c3ccc(Br)cc3)no2)c1=O
- RP-LC retention time: 1100 s

SMILES: O=C(Cc1csc(NC(=O)c2cnccn2)n1)Nc1nc2ccccc2s1
- RP-LC retention time: 734 s

SMILES: CC1=C(c2ccc(C(C)C)cc2)S(=O)(=O)N=C1N1CCC(C(=O)NCc2ccco2)CC1
- RP-LC retention time: 939 s

SMILES: COc1ccc(-c2nnc(-c3ccc(C)c(S(=O)(=O)N4CCCC4)c3)o2)cc1
- RP-LC retention time: 1030 s

SMILES: Cc1noc(COC2CCCN(C(=O)C3(c4ccccc4)CC3)C2)n1 (stereo unspecified)
- RP-LC retention time: 791 s

SMILES: Cc1ccc(-c2cn3ccn(-c4cccc(F)c4)c(=O)c3n2)c(C)c1
- RP-LC retention time: 900 s

SMILES: CC(C)CNC(=O)C1CCCN(c2ncnc3c2oc2ccccc23)C1 (stereo unspecified)
- RP-LC retention time: 725 s

SMILES: Cc1[nH]c(C(=O)NCc2ccccc2Cl)c(C)c1S(=O)(=O)N1CCCC1
- RP-LC retention time: 866 s

SMILES: COCCC1CCN(C(=O)c2n[nH]c3ccccc23)CC1
- RP-LC retention time: 709 s

SMILES: Cc1ccc(NC(=O)Cn2nc3n(c2=O)CCCCC3)c(C)c1
- RP-LC retention time: 703 s

SMILES: CC1CCN(CCNS(=O)(=O)c2ccccc2-c2nc(-c3cccc(F)c3)no2)CC1
- RP-LC retention time: 755 s

SMILES: CCOC(=O)c1ccc(NC(=O)c2c(OC)cc(=O)n3c2CCCC3)cc1
- RP-LC retention time: 718 s

SMILES: Cc1csc(-c2cc(S(=O)(=O)Nc3ccc(S(N)(=O)=O)cc3)c(C)s2)n1
- RP-LC retention time: 797 s

SMILES: COc1ccc(-c2nc3ccccn3c2NC(=O)c2cccc([N+](=O)[O-])c2)cc1
- RP-LC retention time: 659 s

SMILES: CCCNC(=O)N1CCC(CCOc2ccncc2)CC1
- RP-LC retention time: 571 s

SMILES: COc1ccc(CNC(=O)c2c(C)sc3ccn(Cc4ccc(F)cc4)c(=O)c23)cc1
- RP-LC retention time: 974 s

SMILES: CCc1ccccc1NS(=O)(=O)c1cc2n(c1)CCN(CC)C2=O
- RP-LC retention time: 771 s

SMILES: CCc1nc(OCC(=O)Nc2ccccc2Cl)c2ccccc2n1
- RP-LC retention time: 831 s

SMILES: COc1cc(NC(=O)c2csc(-c3ccc(C)n3C)n2)cc(OC)c1
- RP-LC retention time: 1130 s

SMILES: CCCNC(=O)C1CCN(c2ccc(SCC(=O)Nc3c(C)cc(C)cc3C)nn2)CC1
- RP-LC retention time: 657 s

SMILES: CCOc1ccc(-n2c(=O)c3sccc3n(Cc3nc(-c4ccc(C)c(C)c4)no3)c2=O)cc1
- RP-LC retention time: 1130 s

SMILES: CCCCNC(=O)Cc1c(OC)ccc2cc(Br)ccc12
- RP-LC retention time: 947 s

SMILES: Cc1cccc(OCc2nc(CCN(C)C(=O)NCc3ccco3)no2)c1
- RP-LC retention time: 844 s

SMILES: CCOc1ncccc1CNC(=O)c1ccc2cc[nH]c2c1
- RP-LC retention time: 756 s

SMILES: Cc1nc(-c2cnccn2)nc2c1CCC(=O)N2Cc1cccnc1
- RP-LC retention time: 556 s

SMILES: O=C(CCc1c(-c2ccc(Br)cc2)nc2ccccn12)NCc1cccnc1
- RP-LC retention time: 557 s

SMILES: N#Cc1cccc(-c2cn3c(n2)N(C(=O)c2cnccn2)CCC3)c1
- RP-LC retention time: 687 s

SMILES: CC(C)N1C(=O)Cc2ccccc2C1C(=O)NCc1ccccc1Br (stereo unspecified)
- RP-LC retention time: 825 s

SMILES: CCN1CCC2(CC1)OC(=O)C(C)=C2C(=O)N1CCN(c2cccc(OC)c2)CC1
- RP-LC retention time: 634 s

SMILES: Cc1cnc(C(=O)N2CCCCCNC(=O)[C@@H]3CCC[C@@H]32)cn1
- RP-LC retention time: 623 s

SMILES: CCc1ccc(C(C)NC(=O)c2ccnc3c(NC(C)=O)cccc23)cc1 (stereo unspecified)
- RP-LC retention time: 896 s

SMILES: O=C(Cn1nc(N2CCCC2)c2ccccc2c1=O)Nc1ccc2c(c1)OCO2
- RP-LC retention time: 854 s

SMILES: Cc1ccc(CN2C(=O)NC3(CCN(C(=O)COc4ccc(C)cc4)CC3)C2=O)cc1
- RP-LC retention time: 876 s

SMILES: COc1ccc(C2(c3nc(CCS(=O)(=O)c4ccccc4)no3)CC2)cc1
- RP-LC retention time: 959 s

SMILES: Cc1c(C(=O)NC(C)C)cnn1-c1cc(-c2nc(C(C)C)no2)ccn1
- RP-LC retention time: 868 s

SMILES: COc1ccc(N2CCN(c3nc(C(=O)N4CCCC4)cs3)CC2)cc1
- RP-LC retention time: 853 s

SMILES: Cn1c(C#N)ccc1-c1ccc2c(c1)C(C)(C)OC(=S)N2
- RP-LC retention time: 989 s

SMILES: CCn1c(CCC(=O)NCc2ccc(F)cc2)nc2c(C)cccc2c1=O
- RP-LC retention time: 848 s

SMILES: COCc1c(C(=O)O)nnn1-c1ccc(OC)c(OC)c1
- RP-LC retention time: 626 s

SMILES: CC(C)NC(=O)c1nsc(C(=O)NC2CC2)c1N
- RP-LC retention time: 713 s

SMILES: COc1ccc(CNC(=O)CSc2cc(N3CCN(c4ccc(OC)cc4)CC3)ncn2)cc1
- RP-LC retention time: 1090 s

SMILES: CC(C)CC(=O)Nc1nc(-c2ccc3ccccc3c2)cs1
- RP-LC retention time: 1140 s

SMILES: COc1ccc(C(=O)N(Cc2cc(OC)c(OC)c(OC)c2)C2CCS(=O)(=O)C2)cc1Cl (stereo unspecified)
- RP-LC retention time: 817 s

SMILES: Cn1nc(-c2nc(Cc3ccccc3)no2)c2c1CCN(C(=O)C1CCOC1)C2 (stereo unspecified)
- RP-LC retention time: 777 s

SMILES: O=c1n(Cc2cccc(Cl)c2)nc2c(S(=O)(=O)N3CCCCC3)cccn12
- RP-LC retention time: 935 s

SMILES: Cc1c2ccncc2cc2c1[nH]c1ccccc12
- RP-LC retention time: 637 s

SMILES: CCc1ccc(-c2noc(Cn3c(=O)n(-c4ccc(OC)cc4)c(=O)c4sccc43)n2)cc1
- RP-LC retention time: 1150 s
